Here are results for three molecules from US6812365B2, “Disulfone reagents and methods of preparing and using same” (The Arizona Disease Control Research Commission, priority 1999, dated 2004).

For orientation: IC50 means the concentration at which inhibition is half-maximal.

The assay deals with T1, HIV integrase (HIV-IN) (Human immunodeficiency virus type 1 group M subtype B, UniProt P04585).
T1 construct: employs a purified recombinant integrase
Description: in vitro HIV integrase inhibition assay (3′-processing and DNA strand transfer, purified recombinant integrase, 21-mer duplex oligonucleotide substrate). The class given is biochemical. Conditions: cell-free assay, 50% reduction in enzymatic activity; read-out: IC50 values against HIV-IN. From the text:
Generally, a particular compound's HIV integrase inhibitory potency can be measured by observing the effects of that compound on the integrase enzyme's catalytic activity. HIV integrase has two catalytic functions: (1) 3′-processing, which removes a dinucleotide unit from the 3′-ends of viral DNA; and (2) DNA strand transfer, which […]. These two catalytic steps can be measured in an in vitro assay which employs a purified recombinant integrase and a 21-mer duplex oligonucleotide substrate corresponding to the U5 region of the HIV long terminal repeat (LTR) sequence. This assay permits simultaneous measurement of inhibition constants for both 3′-processing and DNA strand transfer. Inhibitory concentrations (i.e., IC50 values) are determined based on an observed 50% reduction in enzymatic activity in cell-free assays. (See e.g., Zhao H., Neamati N., Mazumder A., Sunder S., Pommier Y., ad Burke T. “Arylamide Inhibitors of HIV-1 Integrase” J. Med. Chem. 1997, 40, 1186-1194).
Compound 76 (an acetylated derivative of Compound 80), Compound 78 (a symmetrical, hydroxylated derivative of Compound 80), and Compound 82 (an acetylated and methylated derivative of Compound 80) have been prepared in accordance with the various aspects of the present invention and have been tested in accordance with the above-described known method of testing HIV-IN inhibition.
`CC(=O)Oc1ccc(C=CS(=O)(=O)CS(=O)(=O)C=Cc2ccc(OC(C)=O)c(OC(C)=O)c2)cc1OC(C)=O` [Compound 76]: the IC50 was in the range of 73 to 77 µM.
In the case of `O=S(=O)(C=Cc1ccc(O)c(O)c1)CS(=O)(=O)C=Cc1ccc(O)c(O)c1` [Compound 78], the IC50 lay within 4 to 6 µM.
For `COc1cc(C=CS(=O)(=O)CS(=O)(=O)C=Cc2cc(OC)c(OC(C)=O)c(OC(C)=O)c2)cc(OC(C)=O)c1OC(C)=O` [Compound 82] the value was 4 µM.
